Data set [1] relates to hand OA participants. The conditions noted are these: for Consumption of rescue medication (total): paracetamol up to 4 g daily as rescue medication, per-protocol population; for Average use of paracetamol as rescue medication compared with placebo: result in words.
From the text: (§1) Participants were issued with a diary card with their medication to be completed for VAS pain rating on a daily basis. […] The protocol recommended that participants should record use of rescue medication (paracetamol up to 4 g daily) in their diary card. […] All other care was at the discretion of the treating physicians.
The next data set relates to knee OA. Particulars: Chappell et al., Pain 2009; cited from earlier work.
Data set [2] deals with hand OA participants. The conditions noted are these: for Side effects: Total (adverse events recorded): all systems, whole treatment group; for Participants discontinuing treatment / withdrawing because of (serious) adverse events: number of participants.
Method: The safety and tolerability of these agents used in this context was secondarily explored, and pain sensitisation measures were assessed.
as §1
In data set [3] the test system is hand OA participants. Particulars: for AUSCAN pain score 90 days (95% CI) / AUSCAN pain score Baseline (95% CI): per-protocol population; for AUSCAN pain score 90 days (95% CI) / AUSCAN pain score Baseline (95% CI) / AUSCAN function 90 days (95% CI) / AUSCAN stiffness 90 days (95% CI) / AUSCAN function Baseline (95% CI) / AUSCAN stiffness Baseline (95% CI): imputed data; for AUSCAN pain score 90 days (95% CI): pregabalin up to 300 mg, duloxetine up to 60 mg daily; for AUSCAN pain score Baseline (95% CI): 5 questions 0-100 mm, total of 500; for AUSCAN function 90 days (95% CI) / AUSCAN stiffness 90 days (95% CI) / AUSCAN function Baseline (95% CI) / AUSCAN stiffness Baseline (95% CI) / AUSCAN function Mean diff (95% CI) / AUSCAN stiffness Mean diff (95% CI) / AUSCAN pain score Mean diff (95% CI): per-protocol; for AUSCAN stiffness Baseline (95% CI): one question 0-100 mm; for AUSCAN function Mean diff (95% CI) / AUSCAN stiffness Mean diff (95% CI): baseline to 90 days; for AUSCAN pain score Mean diff (95% CI): change between baseline and 90 days (13 weeks), primary endpoint.
From the text: Inclusion criteria: Participants were eligible for screening if they were aged 40-75 years, had hand OA diagnosed by ACR criteria (Altman et al., Arthritis and Rheumatism 1990; 33(11): 1601-10) confirmed by a rheumatologist and experiencing pain of at least 5 or above on a numerical rating scale (NRS) of 0-10. […] All participants underwent baseline hand radiography to confirm radiographic evidence of OA. The radiographic findings were used to confirm radiographic evidence of OA from ACR criteria of at least 3 joints affected, with a Kellgren-Lawrence grade (Kellgren et al., Ann Rheum Dis 1957; 16(4): 494-502) of 2 or above in at least 3 affected joints. Radiographic scoring was performed after a training session independently by 2 researchers.
Participants were issued with a diary card with their medication to be completed for VAS pain rating on a daily basis. […] The protocol recommended that participants should record use of rescue medication (paracetamol up to 4 g daily) in their diary card.
The primary end point was the Australian and Canadian Hand Osteoarthritis Index (AUSCAN) rating scale 3.1 with sub-scales for pain, which is a validated measure of hand pain, stiffness and function in clinical trials of hand OA (Bellamy et al., Arthritis Care Res (Hoboken) 2015; 67(7): 972-80). Based on IMMPACT guidelines for pain trials (Dworkin et al., Pain 2005; 113: 9-19), primary end-point data for the AUSCAN pain sub-scale was collected. The primary endpoint was change in AUSCAN pain between baseline and 13 weeks. Patient-reported symptoms were recorded in three domains and participants asked to record their scores based on symptoms ‘in the last 48 hours’. Pain reporting consists of 5 questions, rated at 0-100 mm each, for pain in the hands at rest, gripping objects, turning and squeezing objects, scoring out of a total of 500.
For secondary outcome data, the AUSCAN stiffness and function scales were recorded; there was one question for stiffness symptoms (0-100 mm) and 3 questions testing function (0-100 mm each). Additional secondary outcomes included the Numerical Rating Scale (NRS) pain rating 0-10, the Hospital Anxiety and Depression Scale (HADS) (Bjelland et al., Journal of Psychosomatic Research. 2002; 52(2): 69-77) and pain sensitisation measures in the three treatment groups at baseline and at week 13. Operational definitions for all end points, including time points for comparisons, were specified prospectively in the trial protocol.
(§2) The AUSCAN pain, stiffness and function outcomes are presented as means and 95% confidence intervals. Analysed between group were comparisons by the Mann Whitney U test. Baseline characteristics in each group are shown by mean values and standard deviation. […] IBM SPSS Statistics 21.0 was used for all analyses and graphs were plotted using Graphpad Prism version 6.

In data set [4] the test system is hand OA participants. The conditions noted are these: per-protocol; for Hospital Anxiety and Depression Scale Depression Mean diff (95% CI): baseline to 90 days; for Hospital Anxiety and Depression Scale Anxiety Baseline (95% CI): listed as head as printed; for Hospital Anxiety and Depression Scale Anxiety: listed as head prints only 'Anxiety'.
From the text: Additional secondary outcomes included the Numerical Rating Scale (NRS) pain rating 0-10, the Hospital Anxiety and Depression Scale (HADS) (Bjelland et al., Journal of Psychosomatic Research. 2002; 52(2): 69-77) and pain sensitisation measures in the three treatment groups at baseline and at week 13.
In data set [5] the test system is hand OA participants. Particulars: per-protocol; for Numerical Rating Scale (NRS) 90 days (95% CI) / Numerical Rating Scale (NRS) Baseline (95% CI): imputed data; for Numerical Rating Scale (NRS) Baseline (95% CI): scale 0-10; for Numerical Rating Scale (NRS) Mean diff (95% CI): baseline to 90 days.
From the text: as §1
Additional secondary outcomes included the Numerical Rating Scale (NRS) pain rating 0-10, the Hospital Anxiety and Depression Scale (HADS) (Bjelland et al., Journal of Psychosomatic Research. 2002; 52(2): 69-77) and pain sensitisation measures in the three treatment groups at baseline and at week 13. Operational definitions for all end points, including time points for comparisons, were specified prospectively in the trial protocol.
as §2
Another data set deals with primary hand OA. The conditions noted are these: Basoki et al., Ann Rheum Dis 2015; cited from earlier work.
Where [6] appears, read: number of adverse events recorded in treatment group.

Read-outs that look alike come from different tables or passages of the source.

Here are results for 3 compounds from US11406613B2, “Treatment of osteoarthritis” (ST GEORGE'S HOSPITAL MEDICAL SCHOOL, priority 2016, dated 2022).

For the compound `CNCC[C@H](Oc1cccc2ccccc12)c1cccs1` [Duloxetine], in the data set with hand OA participants [1], the “Consumption of rescue medication (total)” value is 5 days and the “Average use of paracetamol as rescue medication compared with placebo” value is “much lower”. In addition, the “Efficacy for pain outcomes in knee OA” value in the data set with knee OA is given as “shown efficacy for pain outcomes in knee OA”. Moreover, in the data set with hand OA participants [2], the “Side effects: Total (adverse events recorded)” value amounted to 57 and the “Participants discontinuing treatment / withdrawing because of (serious) adverse events” value is 2. Moreover, in the data set with hand OA participants [2] (setting [6]), the “Side effects: Cardiovascular” value came to 2, the “Side effects: Digestive” value amounted to 18, the “Side effects: ENT” value stood at 2 and the “Side effects: Mental” value stood at 9. Besides, in the data set with hand OA participants [2] (setting [6]), the “Side effects: Nervous system, Dizziness” value was determined as 3; the “Side effects: Nervous system, Dry mouth” value is given as 6; the “Side effects: Nervous system, Headaches” value amounted to 8; the “Side effects: Nervous system, Sleepiness” value is given as 3. Moreover, in the data set on hand OA participants [2] (setting [6]), the “Side effects: Ophthalmological” value turned out to be 2, the “Side effects: Respiratory” value was found to be 3 and the “Side effects: Skin” value came to 1. Moreover, the “Significant improvement in AUSCAN pain, stiffness or function compared with placebo” value with hand OA participants [3] (baseline to 13 weeks, result in words) is reported as “Significant improvement in AUSCAN pain, stiffness or function were not observed”. Besides, in the data set with hand OA participants [3], the “AUSCAN pain score 90 days (95% CI)” value is given as 248.1 (162.3 to 333.9), the “AUSCAN pain score Baseline (95% CI)” value is 310.6 (254.3 to 367.0), the “AUSCAN function 90 days (95% CI)” value was 496.4 (342.4 to 650.5) and the “AUSCAN stiffness 90 days (95% CI)” value is 48.3 (29.9 to 66.6). In the data set with hand OA participants [3], the “AUSCAN function Baseline (95% CI)” value was 598.3 (481.2 to 715.3), the “AUSCAN stiffness Baseline (95% CI)” value is on record as 61.8 (45.8 to 77.8), the “AUSCAN function Mean diff (95% CI)” value was −101.9 (−248.4 to −44.8) and the “AUSCAN stiffness Mean diff (95% CI)” value is reported as −13.5 (26.5 to −0.6). Further, the “AUSCAN pain score Mean diff (95% CI)” value in the data set on hand OA participants [3] is reported as −62.5 (−141.6 to 16.6). In the data set on hand OA participants [3] (listed as duloxetine), the “AUSCAN pain score Mean diff (95% CI)” value is reported as −62.5. In the data set with hand OA participants [4], the “Hospital Anxiety and Depression Scale Depression 90 days (95% CI)” value is given as 3.8 (1.9 to 5.7); the “Hospital Anxiety and Depression Scale Depression Baseline (95% CI)” value is reported as 4.1 (2.3 to 5.9); the “Hospital Anxiety and Depression Scale Depression Mean diff (95% CI)” value is recorded as −0.3 (−1.8 to 1.2); the “Hospital Anxiety and Depression Scale Anxiety Baseline (95% CI)” value is given as 4.3 (2.2 to 6.3). Further, the “Hospital Anxiety and Depression Scale Anxiety” value in the data set on hand OA participants [4] was 5.6 (3.6 to 7.5). Besides, in the data set with hand OA participants [5], the “Numerical Rating Scale (NRS) 90 days (95% CI)” value was 4.3 (2.6 to 5.9), the “Numerical Rating Scale (NRS) Baseline (95% CI)” value is given as 6.6 (5.7 to 7.4) and the “Numerical Rating Scale (NRS) Mean diff (95% CI)” value is recorded as −2.3 (−3.8 to −0.9).
On to `CC(C)C[C@H](CN)CC(=O)O` [Pregabalin, (3S)-3-(aminomethyl)-5-methylhexanoic acid], for which, in the data set on hand OA participants [1], the “Consumption of rescue medication (total)” value turned out to be 9 days and the “Average use of paracetamol as rescue medication compared with placebo” value is “much lower”. Moreover, in the data set with hand OA participants [2], the “Side effects: Total (adverse events recorded)” value was 55 and the “Participants discontinuing treatment / withdrawing because of (serious) adverse events” value is 4. In the data set on hand OA participants [2] (setting [6]), the “Side effects: Cardiovascular” value stood at 3, the “Side effects: Digestive” value was found to be 7, the “Side effects: Genitourinary” value is given as 1 and the “Side effects: Mental” value was 9. Further, in the data set on hand OA participants [2] (setting [6]), the “Side effects: Nervous system, Dizziness” value is on record as 7; the “Side effects: Nervous system, Dry mouth” value stood at 6; the “Side effects: Nervous system, Headaches” value is reported as 3; the “Side effects: Nervous system, Loss of balance” value stood at 7. In the data set with hand OA participants [2] (setting [6]), the “Side effects: Nervous system, Sleepiness” value came out at 5; the “Side effects: Ophthalmological” value was 4; the “Side effects: Respiratory” value was 2. Further, in the data set with hand OA participants [3], the “AUSCAN pain score 90 days (95% CI)” value is reported as 176.5 (123.9 to 229.1), the “AUSCAN pain score Baseline (95% CI)” value is 308.5 (262.6 to 354.5), the “AUSCAN function 90 days (95% CI)” value is on record as 362.2 (281.7 to 442.7) and the “AUSCAN stiffness 90 days (95% CI)” value is 36.5 (23.0 to 49.9). In addition, in the data set on hand OA participants [3], the “AUSCAN function Baseline (95% CI)” value is on record as 608.5 (541.3 to 675.7), the “AUSCAN stiffness Baseline (95% CI)” value is 59.9 (51.8 to 67.9), the “AUSCAN function Mean diff (95% CI)” value is reported as −246.3 (−341.7 to −151.0) and the “AUSCAN stiffness Mean diff (95% CI)” value is given as −23.4 (−35.7 to −11.1). Moreover, the “AUSCAN pain score Mean diff (95% CI)” value in the data set on hand OA participants [3] was −132.0 (−181.1 to −82.9). In the data set on hand OA participants [3] (listed as pregabalin), the “AUSCAN pain score Mean diff (95% CI)” value is on record as −132.0. In addition, in the data set on hand OA participants [3] (result in words), the “Dose giving maximum analgesic and functional improvement effect (AUSCAN trajectory, FIG. 3)” value was “maximum analgesic and functional improvement effect at the higher dose of 300 mg”. Also, in the data set with hand OA participants [4], the “Hospital Anxiety and Depression Scale Depression 90 days (95% CI)” value was 4.1 (2.6 to 5.6); the “Hospital Anxiety and Depression Scale Depression Baseline (95% CI)” value is given as 5.1 (3.3 to 6.9); the “Hospital Anxiety and Depression Scale Depression Mean diff (95% CI)” value was −1.1 (−2.1 to −0.02); the “Hospital Anxiety and Depression Scale Anxiety Baseline (95% CI)” value was 5.2 (2.9 to 7.5). For the same compound, the “Hospital Anxiety and Depression Scale Anxiety” value with hand OA participants [4] is listed as 6.1 (3.8 to 8.3). In addition, in the data set on hand OA participants [5], the “Numerical Rating Scale (NRS) 90 days (95% CI)” value is 3.4 (2.4 to 4.4), the “Numerical Rating Scale (NRS) Baseline (95% CI)” value was 6.1 (5.4 to 6.7) and the “Numerical Rating Scale (NRS) Mean diff (95% CI)” value was −2.7 (−3.5 to −1.9).
For the compound `CCN(CCO)CCCC(C)Nc1ccnc2cc(Cl)ccc12` (stereo not shown) [hydroxychloroquine], in the data set with primary hand OA, the “Pain reduction compared to placebo in primary hand OA” value is given as “did not reduce pain compared to placebo”.
